Measured values published in patent publication US20250332173A1, “COMPOUNDS AND METHODS FOR MODULATING NUCLEIC ACID SPLICING” (REMIX THERAPEUTICS INC., priority 2021, published 2025).
Where two headings read alike, the source gives them in different places.

Columns and labels:
Format in all cases: cell-based, human
[1] = system: SMN2 mRNA; test: RT-qPCR splicing assay, SMN2 canonical junction (CJ) mRNA; conditions: Homo sapiens
Procedure, shortened: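 A673 or K562 cells were treated for 24 h at 37 °C with compound in 11-point 3-fold dilution (top 10 uM final, DMSO ≤0.25%). Lysates then went to one-step RT-qPCR measuring canonical-junction mRNA, normalized to GAPDH, GUSB or PPIA.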

[2] = system: HTT mRNA; test: RT-qPCR splicing assay, HTT canonical junction (CJ) and alternative junction (AJ) mRNA; conditions: Homo sapiens; for AC50: increase in HTT alternative junction (AJ) mRNA, read-out: HTT AJ AC50
Procedure, shortened: (§1)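 A673 cells (normalized to PPIA) or K562 cells (normalized to GAPDH or GUSB) were treated 24 h at 37 °C with an 11-point 3-fold dilution series, top 10 uM, DMSO ≤0.25%. Cell lysates went to one-step RT-qPCR measuring canonical- and alternative-junction MYB or HTT transcripts.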

[3] = system: MYB mRNA; test: RT-qPCR splicing assay, MYB canonical junction (CJ) and alternative junction (AJ) mRNA; conditions: Homo sapiens; for AC50: increase in MYB alternative junction (AJ) mRNA, read-out: MYB AJ AC50
Procedure, shortened: as §1

[4] = Table 5 panel, canonical junction qPCR, compound concentration having 50% response in CJ decrease, read-out: SMN2 IC50 (decrease in CJ mRNA levels)
[5] = decrease in HTT canonical junction (CJ) mRNA, RT-qPCR, read-out: HTT CJ IC50
[6] = Table 5 panel, canonical junction qPCR, compound concentration having 50% response in CJ decrease, read-out: HTT IC50 (decrease in CJ mRNA levels)
[7] = Table 5 panel, canonical junction qPCR, compound concentration having 50% response in CJ decrease, read-out: MYB IC50 (decrease in CJ mRNA levels)
[8] = decrease in MYB canonical junction (CJ) mRNA, RT-qPCR, read-out: MYB CJ IC50
[9] = canonical junction qPCR panel, Table 5, read-out: SMN2 (decrease in CJ mRNA levels, IC50)
[10] = canonical junction qPCR panel, Table 5, read-out: HTT (decrease in CJ mRNA levels, IC50)
[11] = canonical junction qPCR panel, Table 5, read-out: MYB (decrease in CJ mRNA levels, IC50)

Row | IC50 [1, 4] | IC50 [2, 5] | IC50 [2, 6] | IC50 [3, 7] | IC50 [3, 8] | IC50 [1, 9] | IC50 [2, 10] | IC50 [3, 11] | SMILES | AC50 ([2]; RT-qPCR) | AC50 ([3]; RT-qPCR)
1 | 100 to 1000 nM | 1000 to 10000 nM | 1000 to 10000 nM | 1000 to 10000 nM | 1000 to 10000 nM |  |  |  | Cc1cn2cc(-c3ccc4c(c3)CCN(C3CCNCC3)C4=O)cc(C)c2n1 [Compound 217, 6-[2,8-dimethylimidazo[1,2-a]pyridin-6-yl]-2-(piperidin-4-yl)-3,4-dihydroisoquinolin-1-one] | 1000 to 10000 nM | 1000 to 10000 nM
2 | < 100 nM | 1000 to 10000 nM | 1000 to 10000 nM | 1000 to 10000 nM | 1000 to 10000 nM |  |  |  | Cc1cc(-c2ccc3c(=O)n(C4CCNCC4)cnc3c2F)cc2cn(C)nc12 [Compound 234] | 1000 to 10000 nM | 1000 to 10000 nM
3 |  | 100 to 1000 nM |  |  | 100 to 1000 nM | < 100 nM | 100 to 1000 nM | 100 to 1000 nM | Cn1cc2cc(-c3ncc4c(=O)n([C@@H]5CCNC5)ccc4n3)c(O)c(F)c2n1 [Compound 1466] | 100 to 1000 nM | 100 to 1000 nM
4 |  | 100 to 1000 nM |  |  | 100 to 1000 nM | 100 to 1000 nM | 100 to 1000 nM | 100 to 1000 nM | Cc1cn2nc(-c3ccc4c(=O)n([C@H]5CCN(C)[C@@H](C)C5)ncc4n3)cc(C)c2n1 [Compound 1528, 2-(2,8-dimethylimidazo[1,2-b]pyridazin-6-yl)-6-(1,2-dimethyl-4-piperidyl)pyrido[2,3-d]pyridazin-5-one] | 100 to 1000 nM | 100 to 1000 nM
5 |  | 1000 to 10000 nM |  |  | 100 to 1000 nM | < 100 nM | 1000 to 10000 nM | < 100 nM | CNC12CCC(n3ccc4nc(-c5cc6cn(C)nc6c(C)c5O)ncc4c3=O)(CC1)C2 [Compound 1479] | 1000 to 10000 nM | < 100 nM
6 |  | 1000 to 10000 nM |  |  | 1000 to 10000 nM | 1000 to 10000 nM | 1000 to 10000 nM | 1000 to 10000 nM | Cc1cc(-c2ccc3c(=O)[nH]c(N4CCN(C)CC4)nc3c2)cc2cn(C)nc12 [Compound 2212] | 1000 to 10000 nM | 1000 to 10000 nM
7 |  | < 100 nM |  |  | 100 to 1000 nM | < 100 nM | < 100 nM | 100 to 1000 nM | Cc1cn2nc(-c3ccc4c(=O)n(C5CCN(CC6CC6)C6(CC6)C5)ncc4n3)cc(C)c2n1 (stereo not shown) [Compound 1543, 6-[4-(cyclopropylmethyl)-4-azaspiro[2.5]octan-7-yl]-2-(2,8-dimethylimidazo[1,2-b]pyridazin-6-yl)pyrido[2,3-d]pyridazin-5-one] | < 100 nM | 100 to 1000 nM
8 | < 100 nM | 100 to 1000 nM | 100 to 1000 nM | 100 to 1000 nM | 100 to 1000 nM |  |  |  | Cc1cn2cc(-c3ccc4c(=O)n(C5CCNCC5)cnc4c3)cc(F)c2n1 [Compound 205] | 100 to 1000 nM | 100 to 1000 nM
9 | 100 to 1000 nM | 1000 to 10000 nM | 1000 to 10000 nM | 1000 to 10000 nM | 1000 to 10000 nM |  |  |  | Cc1cn2cc(-c3ccc4c(=O)n(C5CCN(C)CC5)cnc4c3F)cc(F)c2n1 [Compound 227] | 1000 to 10000 nM | 1000 to 10000 nM
10 | 100 to 1000 nM | 100 to 1000 nM | 100 to 1000 nM | 100 to 1000 nM | 100 to 1000 nM |  |  |  | Cc1cn2cc(-n3cnc4cc(N5CCNCC5)ccc4c3=O)cc(F)c2n1 [Compound 228] | 100 to 1000 nM | 100 to 1000 nM
11 | < 100 nM | < 100 nM | < 100 nM | < 100 nM | < 100 nM |  |  |  | Cc1cn2nc(-c3cc(F)c4c(=O)n(C5CCN(C)CC5)cnc4c3)cc(C)c2n1 [Compound 242] | < 100 nM | < 100 nM
12 |  | > 10000 nM |  |  | > 10000 nM | > 10000 nM | > 10000 nM | > 10000 nM | Cc1cc(-c2ccc3ncn(C4CCN(C)CC4)c(=O)c3c2)cc2cn(C)nc12 [Compound 2170] | > 10000 nM | > 10000 nM
13 |  | 100 to 1000 nM |  |  | 100 to 1000 nM | < 100 nM | 100 to 1000 nM | < 100 nM | Cc1c(O)c(-c2ccc3c(=O)n([C@H]4C[C@@H](C)N[C@@H](C)C4)ccc3n2)cc2cn(C)nc12 [Compound 1464, 6-[(2S,6R)-2,6-dimethyl-4-piperidyl]-2-(6-hydroxy-2,7-dimethyl-indazol-5-yl)-1,6-naphthyridin-5-one] | 100 to 1000 nM | < 100 nM
14 |  | > 10000 nM |  |  | > 10000 nM | > 10000 nM | > 10000 nM | > 10000 nM | Cc1cn2cc(-n3cnc4ccc(N5CCNCC5)cc4c3=O)cc(F)c2n1 [Compound 2195] | > 10000 nM | > 10000 nM
15 | 100 to 1000 nM | 1000 to 10000 nM | 1000 to 10000 nM | 1000 to 10000 nM | 1000 to 10000 nM |  |  |  | Cc1cn2cc(-c3ccc4c(=O)n(C5CCN(C)CC5)cnc4c3)cc(F)c2n1 [Compound 207] | 1000 to 10000 nM | 1000 to 10000 nM
16 |  | 100 to 1000 nM |  |  | 1000 to 10000 nM | 100 to 1000 nM | 100 to 1000 nM | 1000 to 10000 nM | Cc1cn2nc(-c3ccc4c(=O)n(C5CCN(CCF)C6(CC6)C5)ncc4n3)cc(C)c2n1 (stereo not shown) [Compound 1542, 2-(2,8-dimethylimidazo[1,2-b]pyridazin-6-yl)-6-[4-(2-fluoroethyl)-4-azaspiro[2.5]octan-7-1]pyrido[2,3-d]pyridazin-5-one] | 100 to 1000 nM | 1000 to 10000 nM
17 | 100 to 1000 nM | > 10000 nM | > 10000 nM | 1000 to 10000 nM | 1000 to 10000 nM |  |  |  | Cc1nc2c(F)cc(-c3ccc4c(c3)CCN(C3CCNCC3)C4=O)cc2s1 [Compound 226] | > 10000 nM | 1000 to 10000 nM
18 |  | > 10000 nM |  |  | > 10000 nM | > 10000 nM | > 10000 nM | > 10000 nM | CN1CCC(Nc2ccc3ncn(-c4ccc5nn(C)cc5c4)c(=O)c3c2)CC1 [Compound 2171] | > 10000 nM | > 10000 nM
19 |  | 1000 to 10000 nM |  |  | 100 to 1000 nM | < 100 nM | 100 to 1000 nM | 100 to 1000 nM | Cc1c(O)c(-c2ccc3c(=O)n([C@@H]4C[C@@H](C)N[C@@H](C)C4)ccc3n2)cc2cn(C)nc12 [Compound 1463, 6-[(2S,6R)-2,6-dimethyl-4-piperidyl]-2-(6-hydroxy-2,7-dimethyl-indazol-5-yl)-1,6-naphthyridin-5-one] | 100 to 1000 nM | 100 to 1000 nM
20 |  | 100 to 1000 nM |  |  | 100 to 1000 nM | < 100 nM | 100 to 1000 nM | 100 to 1000 nM | Cc1cn2nc(-c3ccc4c(=O)n(C5C[C@@H](C)N[C@H](C)C5)ncc4n3)cc(C)c2n1 (stereo in doubt) [Compound 1537, 2-(2,8-dimethylimidazo[1,2-b]pyridazin-6-yl)-6-[(2R,6R)-2,6-dimethyl-4-piperidyl]pyrido[2,3-d]pyridazin-5-one] | 100 to 1000 nM | 100 to 1000 nM
21 |  | < 100 nM |  |  | 100 to 1000 nM | < 100 nM | < 100 nM | 100 to 1000 nM | Cc1cn2nc(-c3ccc4c(=O)n([C@@H]5CCNC6(CCC6)C5)ncc4n3)cc(C)c2n1 [Compound 1545, 6-[(8R)-5-azaspiro[3.5]nonan-8-yl]-2-(2,8-dimethylimidazo[1,2-b]pyridazin-6-yl)pyrido[2,3-d]pyridazin-5-one] | < 100 nM | 100 to 1000 nM
22 | 100 to 1000 nM | > 10000 nM | > 10000 nM | > 10000 nM | 1000 to 10000 nM |  |  |  | Cc1cn2cc(-c3ccc4c(c3)CCN(C3CCNCC3)C4=O)ncc2n1 [Compound 224] | > 10000 nM | > 10000 nM
23 | < 100 nM | 100 to 1000 nM | 100 to 1000 nM | 100 to 1000 nM | 100 to 1000 nM |  |  |  | Cc1cn2cc(-c3cc(F)c4c(=O)n(C5CCN(C)CC5)cnc4c3)cc(F)c2n1 [Compound 231, 5-fluoro-7-{8-fluoro-2-methylimidazo[1,2-a]pyridin-6-yl}-3-(1-methylpiperidin-4-yl)quinazolin-4-one] | 100 to 1000 nM | 100 to 1000 nM

Row | SMILES | IC50 [1, 4] | IC50 [2, 5] | IC50 [2, 6] | IC50 [3, 7] | IC50 [3, 8] | IC50 [1, 9] | IC50 [2, 10] | IC50 [3, 11] | AC50 ([2]; RT-qPCR) | AC50 ([3]; RT-qPCR)
24 | CN(c1ccc2ncn(-c3cc(F)c4nn(C)cc4c3)c(=O)c2c1)C1CCNCC1 [Compound 2198] |  | > 10000 nM |  |  | > 10000 nM | > 10000 nM | > 10000 nM | > 10000 nM | > 10000 nM | > 10000 nM
25 | Cc1cn2cc(-n3cnc4ccc(N(C)C5CCNCC5)cc4c3=O)cc(F)c2n1 [Compound 2200] |  | > 10000 nM |  |  | > 10000 nM | > 10000 nM | > 10000 nM | > 10000 nM | > 10000 nM | > 10000 nM
